The values that follow come from patent US5068222A, “Bombesin antagonists with deletion of net-residue at the C-terminus” (Imperial Chemical Industries PLC, priority 1987, dated 1991).

Experiment [1] has as its system bombesin-induced stimulation of the secretion of the enzyme amylase. The note with it: rat, in vivo. As for the experimental part: (c) An in vivo test involving the measurement of the antagonism of the bombesin-induced stimulation of the secretion of the enzyme amylase into the pancreatic duct of the rat by a test compound administered orally, sub-cutaneously or intravenously. Bombesin and the test compound can be administered concomitantly or the test compound can be predosed at any convenient interval, for example 30, 60, 90, 120, 150 or 180 minutes, before bombesin is dosed. Amylase was measured by analysis of the conversion of starch into maltose, on incubation of the starch/amylase mixture at 30° C. for 15 minutes, using a spectrophotometric assay as originally described by P. Bernfield in `Methods in Enzymology` Vol. I, p17 (Editors Colowick and Kaplan, Academic Press, New York, 1955). Bombesin (5 micrograms/kg, intravenously) causes a large, but submaximal, increase of amylase secretion within 30 minutes.

Experiment [2] addresses T1, bombesin receptor of mouse Swiss 3T3 fibroblast cells (Mus musculus, UniProt P21729).
T1 construct: the bombesin receptor of mouse Swiss 3T3 fibroblast cells; endogenous in cells; host or cells: mouse Swiss 3T3 fibroblast cells
Put plainly: Test (a): in vitro binding assay, displacement of [I125]GRP. As to conditions: ambient temperature, 1 hour. The method, then: (a) An in vitro binding assay which assesses the ability of a test compound to displace radiolabelled gastrin releasing peptide ([I^125 ]GRP) from the bombesin receptor of mouse Swiss 3T3 fibroblast cells. The test is similar to that described by I. Zachary and E. Rozengurt, Proc. Nat. Acad. Sci. U.S.A., 1985, 82, 7616, except that the cells are incubated at ambient temperature for 1 hour;

For experiment [3], the system named is mouse Swiss 3T3 fibroblast cells. It counts as cell-based. The note with it: 3 h. The method, then: (b) An in vitro assay which assesses the ability of a test compound to inhibit the Neuromedin C stimulated mitogenesis of mouse Swiss 3T3 fibroblast cells as determined by the uptake of [^3 H]-thymidine. The test is similar to those described by N. Corps., L. Rees and K. Brown, Biochem. Journal, 1985, 231, 781 and I. Zachary and E. Rozengurt, Proc. Nat. Acad. Sci. U.S.A., 1985, 82, 7616, except that GRP (18-27) (0.2 or 0.4 nM) was used to stimulate growth and the test compounds were dissolved in an assay medium containing 0.1% bovine serum albumin and 0.4% dimethylsulphoxide and […]

Experiment [4] concerns bombesin-induced hypothermia. The note with it: rat; cited from earlier work.
In experiment [5] the test system is guinea pig pancreatic acini. The note with it: cited from earlier work.

Where a SMILES comes first, the peptide text is derived from it. [ ]: non-standard residue; d: D form. The star is where a group is joined. Cbz = O=C(OCc1ccccc1)* Some results are limits rather than exact numbers.

T1 sequence (P21729 whole entry): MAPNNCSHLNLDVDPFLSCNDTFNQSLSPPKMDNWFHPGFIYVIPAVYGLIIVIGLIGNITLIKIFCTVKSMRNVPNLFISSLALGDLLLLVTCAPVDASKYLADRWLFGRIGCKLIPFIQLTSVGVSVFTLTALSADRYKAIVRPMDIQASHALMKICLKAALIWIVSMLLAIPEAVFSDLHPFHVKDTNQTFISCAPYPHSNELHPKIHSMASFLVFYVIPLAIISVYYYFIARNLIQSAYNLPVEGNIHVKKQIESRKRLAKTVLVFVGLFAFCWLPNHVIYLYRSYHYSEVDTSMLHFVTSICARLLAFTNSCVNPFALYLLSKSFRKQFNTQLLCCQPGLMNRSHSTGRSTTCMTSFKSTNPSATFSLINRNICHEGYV

Consider `CNC(=O)[C@H](CC(C)C)NC(=O)[C@H](Cc1c[nH]cn1)NC(=O)[C@@H](C)NC(=O)[C@@H](NC(=O)[C@H](C)NC(=O)[C@H](Cc1c[nH]c2ccccc12)NC(=O)[C@H](Cc1c[nH]cn1)NC(C)=O)C(C)C` [Ac-His-Trp-Ala-Val-D-Ala-His-Leu-NHMe] (Ac-HWAV[dA]HL-NHMe), for which the “IC50 in test (c)” value in experiment [1] is recorded as less than 2 mg/kg. Also, the IC50 (commonly the concentration that inhibits the measured activity by half) came out at 19.5 nM in experiment [2] and 28 nM in experiment [3].
`COC(=O)[C@H](CC(C)C)NC(=O)[C@H](CCCCNC(=O)OCc1ccccc1)NC(=O)[C@@H](C)NC(=O)[C@@H](NC(=O)[C@H](C)NC(=O)[C@H](Cc1c[nH]c2ccccc12)NC(=O)[C@H](Cc1c[nH]cn1)NC(C)=O)C(C)C` [Ac-His-Trp-Ala-Val-D-Ala-Lys(Z)-Leu-OMe] (Ac-HWAV[dA]K(Cbz)L-OMe): in experiment [1], the “IC50 in test (c)” value was 0.1 mg/kg. Moreover, the IC50 in experiment [3] stood at 0.1 nM.
Consider “[D-Glp^7, D-Ala^11, Ala^14 ]bombesin (7-14)”, for which the “antagonism of bombesin-induced hypothermia” value in experiment [4] is “partial antagonist”.
[D-Phe^12 ]bombesin: the “bombesin-stimulated secretion of amylase” value in experiment [5] was “inhibited”.
[D-Phe^12, Leu^14 ]bombesin: the “bombesin-stimulated secretion of amylase” value in experiment [5] is listed as “inhibited”.
With [Tyr^4, D-Phe^12 ]bombesin, in experiment [5], the “bombesin-stimulated secretion of amylase” value was “inhibited”.
